Data as given in PubChem BioAssay AID1259407 (Chemical Carcinogenesis Research Information System (CCRIS), 2018).
The source made the active and inactive calls. The rule behind the calls is not given here.

Test system: CCRIS mutagenicity, Ames/micronucleus/aberration tests
Assay: CCRIS mutagenicity studies
[1] = Test System: AMES SALMONELLA TYPHIMURIUM, Strain/Indicator: TA98, Metabolic Activation: NONE, Method: PREINCUBATION
[2] = Test System: AMES SALMONELLA TYPHIMURIUM, Strain/Indicator: TA100, Metabolic Activation: NONE, Method: PREINCUBATION
[3] = Test System: AMES SALMONELLA TYPHIMURIUM, Strain/Indicator: TA98, Metabolic Activation: NONE, Method: STANDARD PLATE
[4] = Test System: AMES SALMONELLA TYPHIMURIUM, Strain/Indicator: TA100, Metabolic Activation: NONE, Method: STANDARD PLATE
[5] = Test System: AMES SALMONELLA TYPHIMURIUM, Strain/Indicator: TA1535, Metabolic Activation: NONE, Method: STANDARD PLATE
[6] = Test System: AMES SALMONELLA TYPHIMURIUM, Strain/Indicator: TA1537, Metabolic Activation: NONE, Method: STANDARD PLATE

CCOc1cccc(N)c1
mutagenic call (Test System: AMES SALMONELLA TYPHIMURIUM, Strain/Indicator: TA97, Metabolic Activation: HAMSTER, LIVER, S-9, AROCLOR 1254 (30%), Method: PREINCUBATION): inactive; negative | mutagenic call (Test System: AMES SALMONELLA TYPHIMURIUM, Strain/Indicator: TA98, Metabolic Activation: HAMSTER, LIVER, S-9, AROCLOR 1254 (5 OR 10%), Method: PREINCUBATION): inactive; negative | mutagenic call (Test System: AMES SALMONELLA TYPHIMURIUM, Strain/Indicator: TA98, Metabolic Activation: HAMSTER, LIVER, S-9, AROCLOR 1254 (30%), Method: PREINCUBATION): inactive; negative | mutagenic call [1]: inactive; negative | mutagenic call (Test System: AMES SALMONELLA TYPHIMURIUM, Strain/Indicator: TA98, Metabolic Activation: RAT, LIVER, S-9, AROCLOR 1254 (5 OR 10%), Method: PREINCUBATION): inactive; negative | mutagenic call (Test System: AMES SALMONELLA TYPHIMURIUM, Strain/Indicator: TA98, Metabolic Activation: RAT, LIVER, S-9, AROCLOR 1254 (30%), Method: PREINCUBATION): inactive; negative | mutagenic call (Test System: AMES SALMONELLA TYPHIMURIUM, Strain/Indicator: TA100, Metabolic Activation: HAMSTER, LIVER, S-9, AROCLOR 1254 (5, 10 OR 30%), Method: PREINCUBATION): inactive; negative | mutagenic call [2]: inactive; negative | mutagenic call (Test System: AMES SALMONELLA TYPHIMURIUM, Strain/Indicator: TA100, Metabolic Activation: RAT, LIVER, S-9, AROCLOR 1254 (5, 10 OR 30%), Method: PREINCUBATION): inactive; negative | mutagenic call (Test System: AMES SALMONELLA TYPHIMURIUM, Strain/Indicator: TA1535, Metabolic Activation: HAMSTER, LIVER, S-9, AROCLOR 1254 (5, 10 OR 30%), Method: PREINCUBATION): inactive; negative | mutagenic call (Test System: AMES SALMONELLA TYPHIMURIUM, Strain/Indicator: TA1535, Metabolic Activation: RAT, LIVER, S-9, AROCLOR 1254 (5, 10 OR 30%), Method: PREINCUBATION): inactive; negative

Cc1c(O)c(=O)ccn1C
mutagenic call (Test System: MOUSE LYMPHOMA, Strain/Indicator: L5178Y (TK+/TK-), Metabolic Activation: NONE, Method: SUSPENSION/PLATE): active; positive. reevaluation of results: positive | mutagenic call (Test System: MOUSE LYMPHOMA, Strain/Indicator: L5178Y (TK+/TK-), Metabolic Activation: RAT, LIVER, S-9, AROCLOR 1254, Method: SUSPENSION/PLATE): active; positive. reevaluation of results: equivocal

CC(=O)Nc1snc2ccc(Cl)cc12
mutagenic call [3]: inactive; negative | mutagenic call (Test System: AMES SALMONELLA TYPHIMURIUM, Strain/Indicator: TA98, Metabolic Activation: S-9, Method: STANDARD PLATE): inactive; negative | mutagenic call [4]: inactive; negative | mutagenic call (Test System: AMES SALMONELLA TYPHIMURIUM, Strain/Indicator: TA100, Metabolic Activation: S-9, Method: STANDARD PLATE): active; positive | mutagenic call [5]: inactive; negative | mutagenic call (Test System: AMES SALMONELLA TYPHIMURIUM, Strain/Indicator: TA1535, Metabolic Activation: S-9, Method: STANDARD PLATE): inactive; negative | mutagenic call [6]: inactive; negative | mutagenic call (Test System: AMES SALMONELLA TYPHIMURIUM, Strain/Indicator: TA1537, Metabolic Activation: S-9, Method: STANDARD PLATE): active; positive

Cc1ccc(NCCCl)cc1
mutagenic call [3]: active; positive | mutagenic call [4]: active; positive | mutagenic call (Test System: AMES SALMONELLA TYPHIMURIUM, Strain/Indicator: TA1977, Metabolic Activation: NONE, Method: STANDARD PLATE): active; positive | mutagenic call (Test System: AMES SALMONELLA TYPHIMURIUM, Strain/Indicator: TA1978, Metabolic Activation: NONE, Method: STANDARD PLATE): inactive; negative

COC(=O)[C@H]1[C@H]2C[C@@H]3c4[nH]c5cc(OC)ccc5c4CCN3C[C@H]2C[C@@H](OC(=O)c2cc(OC)c(OC)c(OC)c2)[C@@H]1OC
mutagenic call (End Point: IN VITRO CHROMOSOMAL ABERRATIONS, Test System: CHO CELLS, Metabolic Activation: NONE): inactive; negative | mutagenic call (Test System: AMES SALMONELLA TYPHIMURIUM, Strain/Indicator: TA97, Metabolic Activation: HAMSTER, LIVER, S-9, AROCLOR 1254 (10 OR 30%), Method: PREINCUBATION): inactive; negative | mutagenic call (Test System: AMES SALMONELLA TYPHIMURIUM, Strain/Indicator: TA97, Metabolic Activation: NONE, Method: PREINCUBATION): inactive; negative | mutagenic call (Test System: AMES SALMONELLA TYPHIMURIUM, Strain/Indicator: TA97, Metabolic Activation: RAT, LIVER, S-9, AROCLOR 1254 (10 OR 30%), Method: PREINCUBATION): inactive; negative | mutagenic call (Test System: AMES SALMONELLA TYPHIMURIUM, Strain/Indicator: TA98, Metabolic Activation: HAMSTER, LIVER, S-9, AROCLOR 1254 (10 OR 30%), Method: PREINCUBATION): inactive; negative | mutagenic call [1]: inactive; negative | mutagenic call [3]: inactive; negative | mutagenic call (Test System: AMES SALMONELLA TYPHIMURIUM, Strain/Indicator: TA98, Metabolic Activation: RAT, LIVER, S-9, AROCLOR 1254 (10 OR 30%), Method: PREINCUBATION): inactive; negative | mutagenic call (Test System: AMES SALMONELLA TYPHIMURIUM, Strain/Indicator: TA98, Metabolic Activation: RAT, LIVER, S-9, AROCLOR 1254, Method: STANDARD PLATE): inactive; negative | mutagenic call (Test System: AMES SALMONELLA TYPHIMURIUM, Strain/Indicator: TA100, Metabolic Activation: HAMSTER, LIVER, S-9, AROCLOR 1254 (10 OR 30%), Method: PREINCUBATION): inactive; negative | mutagenic call [2]: inactive; negative | mutagenic call [4]: inactive; negative | mutagenic call (Test System: AMES SALMONELLA TYPHIMURIUM, Strain/Indicator: TA100, Metabolic Activation: RAT, LIVER, S-9, AROCLOR 1254 (10%), Method: PREINCUBATION): inactive; negative | mutagenic call (Test System: AMES SALMONELLA TYPHIMURIUM, Strain/Indicator: TA100, Metabolic Activation: RAT, LIVER, S-9, AROCLOR 1254 (30%), Method: PREINCUBATION): inactive; negative | mutagenic call (Test System: AMES SALMONELLA TYPHIMURIUM, Strain/Indicator: TA100, Metabolic Activation: RAT, LIVER, S-9, AROCLOR 1254, Method: STANDARD PLATE): inactive; negative | mutagenic call (Test System: AMES SALMONELLA TYPHIMURIUM, Strain/Indicator: TA1535, Metabolic Activation: HAMSTER, LIVER, S-9, AROCLOR 1254 (10 OR 30%), Method: PREINCUBATION): inactive; negative | mutagenic call (Test System: AMES SALMONELLA TYPHIMURIUM, Strain/Indicator: TA1535, Metabolic Activation: NONE, Method: PREINCUBATION): inactive; negative | mutagenic call [5]: inactive; negative | mutagenic call (Test System: AMES SALMONELLA TYPHIMURIUM, Strain/Indicator: TA1535, Metabolic Activation: RAT, LIVER, S-9, AROCLOR 1254 (10 OR 30%), Method: PREINCUBATION): inactive; negative | mutagenic call (Test System: AMES SALMONELLA TYPHIMURIUM, Strain/Indicator: TA1535, Metabolic Activation: RAT, LIVER, S-9, AROCLOR 1254, Method: STANDARD PLATE): inactive; negative | mutagenic call [6]: inactive; negative | mutagenic call (Test System: AMES SALMONELLA TYPHIMURIUM, Strain/Indicator: TA1537, Metabolic Activation: RAT, LIVER, S-9, AROCLOR 1254, Method: STANDARD PLATE): inactive; negative | mutagenic call (Test System: E. COLI, Strain/Indicator: WP2 UVRA, Metabolic Activation: HAMSTER, LIVER, S-9, AROCLOR 1254, Method: STANDARD PLATE): inactive; negative | mutagenic call (Test System: E. COLI, Strain/Indicator: WP2 UVRA, Metabolic Activation: HAMSTER, LIVER, S-9, Method: STANDARD PLATE): inactive; negative | mutagenic call (Test System: E. COLI, Strain/Indicator: WP2 UVRA, Metabolic Activation: MOUSE, LIVER, S-9, AROCLOR 1254, Method: STANDARD PLATE): inactive; negative | mutagenic call (Test System: E. COLI, Strain/Indicator: WP2 UVRA, Metabolic Activation: MOUSE, LIVER, S-9, Method: STANDARD PLATE): inactive; negative | mutagenic call (Test System: E. COLI, Strain/Indicator: WP2 UVRA, Metabolic Activation: NONE, Method: STANDARD PLATE): inactive; negative | mutagenic call (Test System: E. COLI, Strain/Indicator: WP2 UVRA, Metabolic Activation: RAT, LIVER, S-9, AROCLOR 1254, Method: STANDARD PLATE): inactive; negative | mutagenic call (Test System: E. COLI, Strain/Indicator: WP2 UVRA, Metabolic Activation: RAT, LIVER, S-9, Method: STANDARD PLATE): inactive; negative | mutagenic call (Test System: UDS RAT HEPATOCYTES, Strain/Indicator: BROMODEOXYURIDINE INCORP, Metabolic Activation: NONE, Method: FLOW CYTOMETRIC ANALYSIS): inactive; negative
